From paper PMC6225126, “Inhibitory Effects of Bioassay-Guided Isolation of Anti-Glycation Components from Taraxacum coreanum and Simultaneous Quantification” (Molecules : A Journal of Synthetic Chemistry and Natural …, 2018)
Converted amounts (≈) assume the structure as drawn. Read-outs that look alike come from different tables or passages of the source.

What was measured:
[1] = system: advanced glycation end-product (AGE) formation in BSA/glucose system; assay: Inhibition of AGE formation in BSA-glucose system (fluorescence); assay type: biochemical, bovine
Experimental: Inhibition of AGE formation in BSA-glucose system was determined using the spectrophotometric method described previously. All test samples were dissolved in 10% DMSO. […] This mixture was incubated at 60 °C for 2 days. […] We used AG as a positive control. Three replicate samples were run for each set. The inhibitory activity on AGE formation was calculated using the following formula: {(Ac − As)/Ac} × 100, where Ac is fluorescence of the control, and As is the fluorescence of the sample.

[2] = system: advanced glycation end-product (AGE) formation in BSA/MGO system; assay: Inhibition of AGE formation in BSA-MGO system (fluorescence); assay type: biochemical, bovine; conditions: BSA 1 mg/mL, 7 mM MGO, 60 °C, 2 days, mean ± SD, n = 3; for IC50: isolated compounds
Experimental: The inhibitory effect on protein glycation induced by MGO (40% aqueous solution) and the main reactive intermediate compound formed in Maillard reaction were evaluated. All test samples were dissolved in 10% DMSO. […] This mixture was incubated at 60 °C for 2 days. […] We used AG as a positive control. Three replicate samples were run for each set. The inhibitory activity was calculated using the same equation applied in BSA-glucose assay.

[3] = molecular target: T1, α-glucosidase from Saccharomyces cerevisiae (Saccharomyces cerevisiae, UniProt P53341); assay: biochemical; assay type: biochemical
T1 construct: purchased Sigma-Aldrich Chemical Company (St. Louis, MO, USA)
T1 sequence (P53341 whole entry): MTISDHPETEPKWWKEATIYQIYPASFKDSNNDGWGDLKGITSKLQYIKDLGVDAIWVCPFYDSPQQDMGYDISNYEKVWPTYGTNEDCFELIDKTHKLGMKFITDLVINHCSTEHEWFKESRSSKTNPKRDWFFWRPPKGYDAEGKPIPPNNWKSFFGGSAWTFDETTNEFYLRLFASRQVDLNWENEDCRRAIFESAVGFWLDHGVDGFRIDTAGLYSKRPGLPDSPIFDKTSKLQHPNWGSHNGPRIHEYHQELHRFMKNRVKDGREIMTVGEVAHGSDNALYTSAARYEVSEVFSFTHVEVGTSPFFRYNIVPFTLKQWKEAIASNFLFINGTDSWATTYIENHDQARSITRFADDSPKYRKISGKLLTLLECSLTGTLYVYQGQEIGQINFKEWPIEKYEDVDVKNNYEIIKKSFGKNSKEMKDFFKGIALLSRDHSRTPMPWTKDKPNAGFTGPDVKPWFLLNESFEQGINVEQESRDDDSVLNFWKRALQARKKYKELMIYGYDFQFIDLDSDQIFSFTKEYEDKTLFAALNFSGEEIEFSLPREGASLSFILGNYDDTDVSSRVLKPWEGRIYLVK
Experimental: Methanol (MeOH), ethanol (EtOH), Hx, DCM, EA, BuOH, and distilled water were used for extraction, fractionation, and open column chromatography. Sephadex LH-20 (25–100 μm; Pharmacia, Stockolm, Sweden), MCI CHP 20P (Supelco, St. Louis, MO, USA), and ODS gel (400–500 mesh; Waters, Milford, MA, USA) were used for open column chromatography. Dimethyl sulfoxide-d6 (DMSO-d6) and methanol-d4 (CD3OD) were used as solvents for NMR analysis. Molecular weight was determined by using ultrahigh performance liquid chromatography and high-resolution mass spectrometry (UHPLC-HRMS) coupled with electrospray ionization hybrid linear trap-quadruple-Orbitrap MS (ESI/LTQ-Orbitrap) using an Ultimate 3000 RSLC (Thermo, Darmstadt, Germany). ^1H-nuclear magnetic resonance (NMR) spectra were recorded at 600 MHz and ^13C-NMR spectra were recorded at 150 MHz on a JEOL spectrometer. The chemical shifts are expressed in parts per million (ppm) on the δ scale and as coupling constants (J) in Hertz. […] A Waters Kromasil C18 (4.6 × 250 mm, 5 μm) column was used as the separation column. HPLC-grade solvents, such as MeOH and distilled water (H2O), were purchased from J. T. Baker® (Phillipsburg, PA, USA). HPLC-grade phosphoric acid was obtained from DEAJUNG Chemical (Siheung, Gyeonggi, Korea).
This assay was performed using a 96-well microplate reader and a spectrophotometer. […] A chromogenic substance was used for quantification purposes. After the addition of mixture solution to each well, 10 mM phosphate buffer (20 µL, pH 6.8) containing 0.2 U/mL α-glucosidase was added. This mixture was incubated at 37 °C for 15 min. The reaction was stopped by adding 80 µL of 0.2 mol/L sodium carbonate solution. […] Three replicate samples were run for each set. The inhibitory activity was calculated using the equation applied in BSA-glucose assay, but absorbance was measured instead of fluorescence.

[4] = isolated compounds, BSA 10 mg/mL, 0.4 M D-fructose and D-glucose, 60 °C, 2 days, mean ± SD, n = 3, read-out: IC50 BSA/Glucose (AGE formation)
[5] = isolated compounds, 2.5 mM p-NPG, pH 6.8, 37 °C, 15 min, mean ± SD, n = 3, read-out: IC50 α-Glucosidase
[6] = isolated compounds, read-out: IC50 α-glucosidase activity
[7] = isolated compounds, 2.5 mM p-NPG, pH 6.8, 37 °C, 15 min, mean ± SD, n = 3

| IC50 [1, 4] [µM] | IC50 [2] [µM] | Molecule | further results |
| --- | --- | --- | --- |
| 236 ± 9.11 | 66.1 ± 17.1 | O=c1cc(-c2ccc(O)c(O)c2)oc2cc(O)cc(O)c12 [Compound 1, luteolin] | IC50 α-Glucosidase [3, 7]: no inhibitory activity |
| 423 ± 18 | 90.8 ± 21.7 | O=c1cc(-c2ccc(OC3OC(CO)C(O)C(O)C3O)c(O)c2)oc2cc(O)cc(O)c12 (stereo not drawn) [Compound 3, luteolin-4′-glucoside] | IC50 ([1]; compound 3, unit as printed in running text b17, read-out: IC50 AGE formation in BSA-glucose system): 423 ± 18 µM; IC50 [3, 6]: 598 ± 147 µM |
| 253 | 136 ± 2.64 | CC1OC(OCC2OC(Oc3cc(O)c4c(=O)cc(-c5ccc(O)c(O)c5)oc4c3)C(O)C(O)C2O)C(O)C(O)C1O (stereo not drawn) [Compound 4, luteolin-7-rutinoside] | IC50 [3, 6]: 671 ± 50.8 µM |
| 268 ± 3.41 | 130 ± 28.3 | O=c1cc(-c2cc(O)c(O)cc2OC2OCC(O)C(O)C2O)oc2cc(OC3OC(CO)C(O)C(O)C3O)cc(O)c12 (stereo not drawn) [Compound 5, isoetin-7-glucoside-2′-xyloside] | IC50 α-Glucosidase [3, 7]: no inhibitory activity |
| 238 ± 13.8 | 148 ± 36.3 | O=c1cc(-c2cc(O)c(O)cc2OC2OCC(O)C(O)C2O)oc2cc(OC3OC(CO)C(O)C(O)C3O)cc(O)c12 (stereo not drawn) [Compound 6, isoetin-7-glucoside-2′-arabinoside] | IC50 α-Glucosidase [3, 7]: no inhibitory activity |
| 324 ± 8.29 | 79.7 ± 23.4 | O=C(O)/C=C/c1ccc(O)c(O)c1 [Compound 7, caffeic acid] | IC50 [3, 5]: 5130 ± 804 µM |

The remaining lines, values behind:

| Molecule | IC50 [1, 4] [µM] | IC50 [2] [µM] | further results |
| --- | --- | --- | --- |
| 1-caffeoylglycerol [Compound 8] | 307 ± 10.2 | 152 ± 65.4 | IC50 [3, 5]: 2951 ± 3.94 µM; IC50 [3, 6]: 2951 ± 3.94 µM |
| N=C(N)NN [AMG, aminoguanidine, reference compound] | 602 ± 50.4 | 295 ± 42.7 | IC50 BSA/Glucose (AGE formation) ([1]; extracts and fractions, BSA 10 mg/mL, 0.4 M D-fructose and D-glucose, 60 °C, 2 days, mean ± SD, n = 3): 218.57 ± 24.38 µg/mL (≈ 2950 µM); IC50 BSA/MGO (AGE formation) ([2]; extracts and fractions): 67.51 ± 5.27 µg/mL (≈ 911 µM) |
| O=c1cc(-c2ccc(O)c(O)c2)oc2cc(OC3OC(CO)C(O)C(O)C3O)cc(O)c12 (stereo not drawn) [Compound 2, luteolin-7-glucoside] | 123 ± 2.02 | 108 ± 8.14 | IC50 [3]: 1460 ± 162 µM |
| O=C(/C=C/c1ccc(O)c(O)c1)O[C@@H]1C[C@](O)(C(=O)O)C[C@@H](O)[C@H]1O [Compound 10, chlorogenic acid] |  | 138 ± 1.91 |  |
| chicoric acid [Compound 11] | 64.7 ± 16.7 | 141 ± 8.76 |  |
